Paper PMC9207808 (ACS Chemical Biology, 2022)
Residues, ends and D or L forms follow the SMILES beside them.

Key:
DocSTm [1] = assay: Surface plasmon resonance binding to immobilised Doc; set-up: species or system S. Typhimurium; conditions: for koff × 10^-6 / kon × 10^6: 1:1 kinetic fit, mean ± SD of at least 3 replicates; for kon × 10^6: single-cycle kinetics (multicycle for PhdSTm1-73); for Half-life of the complex: t1/2 = ln2 / koff
Procedure: Experiments were performed in a Biacore S200 (Cytiva) with a Series S sensor chip NTA (Cytiva). The data was analyzed using the Biacore Evaluation Software (Cytiva) and curves were plotted using GraphPad Prism 5 (GraphPad Software, U.S.A.). All experiments were performed at 22 °C with a running buffer containing 10 mM HEPES, 500 mM NaCl, 50 μM EDTA, and 0.005% (v/v) TWEEN 20 at pH 8.0. The surface was conditioned following the standard manufacturer’s guidelines and protein immobilization was performed with a 30–60 s pulse (flow rate of 5 μL/min) of Doc (150 nM) in running buffer. […] Surface regeneration was performed with a 1 min pulse of 0.5 M imidazole followed by a 1 min pulse of 0.35 M of EDTA at pH 8.0.
Binding to Doc was performed using a multicycle kinetics (MCK) setup for peptides 7, 10, and 14, while the remaining samples were tested using a single-cycle kinetics (SCK) setup. The surface was fully regenerated in between each analyte in both cases. In the MCK experiments, increasing concentrations of each analyte were injected with an 80 s pulse (30 μL/min) and dissociation times varied depending on the time required to fully dissociate the complex. The double-referenced sensorgrams (raw data subtracted from a blank injection and reference surface responses) were analyzed using a kinetic and/or a steady-state 1:1 binding model. In the SCK experiments, typically six concentrations of each analyte were sequentially injected with 80 s pulses (30 μL/min), and dissociation times varied depending on the time required to dissociate at least 5% of the complex. The double-referenced sensorgrams were fitted using a kinetic 1:1 binding model.
At least three independent replicates were measured for each analyte (ESI section 5). When a steady-state fit was applied, the reported Kd and its uncertainty correspond, respectively, to the average and standard deviations of the Kd obtained in each measurement. When a kinetic fit was applied, the reported rate constants (kon and koff) and their uncertainties correspond, respectively, to the average and standard deviations of the rate constants obtained in each measurement. In this case, reported Kd were calculated using the equation below, and the standard deviation of the rate constants was propagated. [drawing 1]

DocSTm [2] = assay: Differential scanning fluorimetry (thermal stabilisation of Doc); type: binding, S. Typhimurium; conditions: for melting temperature shift ΔTm: DSF, DocSTm 5 μM, analyte 50 μM, Tm with analyte minus Tm of free DocSTm (42.9 ± 0.9 °C), SYPRO Orange, 20 mM K2HPO4, 50 mM (NH4)2SO4, pH 8.0, triplicate; for Average Tm / Tm: DocSTm 5 µM + 50 µM binder; for Average Tm: average of 3 replicates
Procedure: Experiments were performed in a Mx3005P qPCR System (Agilent) collecting fluorescence data with a temperature ramp of 25 to 95 °C. Samples were prepared in a buffer containing 20 mM K2HPO4 and 50 mM (NH4)2SO4 at pH 8.0. The SYPRO Orange dye (Sigma-Aldrich, 5000× stock in DMSO) was used to monitor protein denaturation and was diluted to a final concentration of 3×. For binding experiments, the final concentration of Doc was 5 μM. Each condition was performed in triplicate (ESI section 4) and the melting curves were plotted using GraphPad Prism 5 (GraphPad Software, U.S.A.). The melting temperatures were obtained by fitting the sigmoidal section of the curves to a Boltzmann sigmoid function.

[3] = SPR, kinetic fit, KD calculated from mean koff and kon, SD propagated, 22 °C, pH 8.0

SMILES | Kd (DocSTm [1]; SPR kinetic fit, replicate 1) | Kd (DocSTm [1]; SPR kinetic fit, replicate 2) | Kd (DocSTm [1]; SPR kinetic fit, replicate 3) | koff × 10^-6 (DocSTm [1]; SPR, 22 °C, pH 8.0) | kon × 10^6 (DocSTm [1]; SPR, 22 °C, pH 8.0) | Kd (DocSTm [1]; [3]) | Half-life of the complex (DocSTm [1]) | melting temperature shift ΔTm (DocSTm [2]) | Average Tm (DocSTm [2]) | Tm (DocSTm [2]; replicate 1) | Tm (DocSTm [2]; replicate 2) | Tm (DocSTm [2]; replicate 3) | Kd (DocSTm [1]; SPR kinetic fit, replicate 4)
CC[C@H](C)[C@H](NC(=O)[C@H](C)NC(=O)[C@H](C)NC(=O)[C@H](Cc1ccccc1)NC(=O)[C@H](CCC(=O)O)NC(=O)[C@H](CC(=O)O)NC(=O)[C@H](CC(=O)O)NC(=O)[C@H](C)NC(=O)[C@H](Cc1c[nH]c2ccccc12)NC(C)=O)C(=O)N[C@@H](CCSC)C(=O)N[C@@H](C)C(=O)N[C@H](C(=O)N[C@@H](Cc1c[nH]cn1)C(=O)NCC(=O)N[C@@H](CC(N)=O)C(=O)N[C@@H](CCC(=O)O)C(=O)N[C@@H](CC(C)C)C(=O)N[C@@H](CCCNC(=N)N)C(=O)N[C@@H](CCC(=O)O)C(=O)N[C@@H](CC(C)C)C(=O)N[C@@H](C)C(=O)N[C@@H](CC(=O)O)C(=O)N[C@@H](CCCCN)C(=O)O)C(C)C [peptide 2] (Ac-WADDEFAAIMAVHGNELRELADK-OH; C-terminus assumed) | 0.0523 nM | 0.0478 nM | 0.0551 nM | 59 ± 11 ×10^-6 s-1 | 1.136 ± 0.140 ×10^6 M-1 s-1 | 0.052 ± 0.012 nM | 3.3 ± 0.6 h | 28.0 ± 1.0 °C | 70.9 ± 0.4 °C | 71.3 °C | 70.8 °C | 70.6 °C | –
CC[C@H](C)[C@H](NC(=O)[C@H](C)NC(=O)[C@H](C)NC(=O)[C@H](Cc1ccccc1)NC(=O)[C@H](C)NC(=O)[C@H](CC(=O)O)NC(=O)[C@H](CC(=O)O)NC(=O)[C@H](CCSC)NC(=O)[C@H](Cc1c[nH]c2ccccc12)NC(C)=O)C(=O)N[C@@H](CCSC)C(=O)N[C@@H](C)C(=O)N[C@H](C(=O)N[C@@H](Cc1c[nH]cn1)C(=O)NCC(=O)N[C@@H](CC(N)=O)C(=O)N[C@@H](CCC(=O)O)C(=O)N[C@@H](CC(C)C)C(=O)N[C@@H](CCCNC(=N)N)C(=O)N[C@@H](CCC(=O)O)C(=O)N[C@@H](CC(C)C)C(=O)N[C@@H](C)C(=O)N[C@@H](CC(=O)O)C(=O)N[C@@H](CCCCN)C(=O)O)C(C)C [peptide 5] (Ac-WMDDAFAAIMAVHGNELRELADK-OH; C-terminus assumed) | 0.0489 nM | 0.0513 nM | 0.0469 nM | 75 ± 5 ×10^-6 s-1 | 1.542 ± 0.147 ×10^6 M-1 s-1 | 0.049 ± 0.006 nM | 2.6 ± 0.2 h | 23.4 ± 0.9 °C | 66.3 ± 0.1 °C | 66.3 °C | 66.3 °C | 66.2 °C | –
CC[C@H](C)[C@H](NC(=O)[C@H](C)NC(=O)[C@H](C)NC(=O)[C@H](Cc1ccccc1)NC(=O)[C@H](CCC(=O)O)NC(=O)[C@H](CC(=O)O)NC(=O)[C@H](CC(=O)O)NC(=O)[C@H](CCSC)NC(=O)[C@H](Cc1c[nH]c2ccccc12)NC(C)=O)C(=O)N[C@@H](CCSC)C(=O)N[C@@H](C)C(=O)N[C@@H](C)C(=O)N[C@@H](Cc1c[nH]cn1)C(=O)NCC(=O)N[C@@H](CC(N)=O)C(=O)N[C@@H](CCC(=O)O)C(=O)N[C@@H](CC(C)C)C(=O)N[C@@H](CCCNC(=N)N)C(=O)N[C@@H](CCC(=O)O)C(=O)N[C@@H](CC(C)C)C(=O)N[C@@H](C)C(=O)N[C@@H](CC(=O)O)C(=O)N[C@@H](CCCCN)C(=O)O [peptide 9] (Ac-WMDDEFAAIMAAHGNELRELADK-OH; C-terminus assumed) | 0.183 nM | 0.239 nM | 0.132 nM | 388 ± 57 ×10^-6 s-1 | 2.266 ± 0.942 ×10^6 M-1 s-1 | 0.171 ± 0.076 nM | 0.50 ± 0.07 h | 24.6 ± 1.2 °C | 67.5 ± 0.7 °C | 68.3 °C | 67.4 °C | 66.9 °C | –
CC[C@H](C)[C@H](NC(=O)[C@H](C)NC(=O)[C@H](C)NC(=O)[C@H](Cc1ccccc1)NC(=O)[C@H](CCC(=O)O)NC(=O)[C@H](CC(=O)O)NC(=O)[C@H](CC(=O)O)NC(=O)[C@H](CCSC)NC(=O)[C@H](Cc1c[nH]c2ccccc12)NC(C)=O)C(=O)N[C@@H](CCSC)C(=O)N[C@@H](C)C(=O)N[C@H](C(=O)N[C@@H](Cc1c[nH]cn1)C(=O)N[C@@H](C)C(=O)N[C@@H](CC(N)=O)C(=O)N[C@@H](CCC(=O)O)C(=O)N[C@@H](CC(C)C)C(=O)N[C@@H](CCCNC(=N)N)C(=O)N[C@@H](CCC(=O)O)C(=O)N[C@@H](CC(C)C)C(=O)N[C@@H](C)C(=O)N[C@@H](CC(=O)O)C(=O)N[C@@H](CCCCN)C(=O)O)C(C)C [peptide 11] (Ac-WMDDEFAAIMAVHANELRELADK-OH; C-terminus assumed) | 0.13 nM | 0.0743 nM | 0.0769 nM | 197 ± 49 ×10^-6 s-1 | 2.350 ± 1.103 ×10^6 M-1 s-1 | 0.084 ± 0.045 nM | 1.0 ± 0.2 h | – | 69.0 ± 0.2 °C | 68.8 °C | 69.2 °C | 68.9 °C | –
CC[C@H](C)[C@H](NC(=O)[C@H](C)NC(=O)[C@H](C)NC(=O)[C@H](Cc1ccccc1)NC(=O)[C@H](CCC(=O)O)NC(=O)[C@H](CC(=O)O)NC(=O)[C@H](CC(=O)O)NC(=O)[C@H](CCSC)NC(=O)[C@H](Cc1c[nH]c2ccccc12)NC(C)=O)C(=O)N[C@@H](CCSC)C(=O)N[C@@H](C)C(=O)N[C@H](C(=O)N[C@@H](Cc1c[nH]cn1)C(=O)NCC(=O)N[C@@H](C)C(=O)N[C@@H](CCC(=O)O)C(=O)N[C@@H](CC(C)C)C(=O)N[C@@H](CCCNC(=N)N)C(=O)N[C@@H](CCC(=O)O)C(=O)N[C@@H](CC(C)C)C(=O)N[C@@H](C)C(=O)N[C@@H](CC(=O)O)C(=O)N[C@@H](CCCCN)C(=O)O)C(C)C [peptide 12] (Ac-WMDDEFAAIMAVHGAELRELADK-OH; C-terminus assumed) | 0.251 nM | 0.166 nM | 0.0853 nM | 203 ± 103 ×10^-6 s-1 | 1.396 ± 0.154 ×10^6 M-1 s-1 | 0.145 ± 0.076 nM | 1.0 ± 0.5 h | 28.2 ± 1.2 °C | 71.1 ± 0.7 °C | 71.8 °C | 71.0 °C | 70.4 °C | 0.0833 nM
CC[C@H](C)[C@H](NC(=O)[C@H](C)NC(=O)[C@H](C)NC(=O)[C@H](Cc1ccccc1)NC(=O)[C@H](CCC(=O)O)NC(=O)[C@H](CC(=O)O)NC(=O)[C@H](CC(=O)O)NC(=O)[C@H](CCSC)NC(=O)[C@H](Cc1c[nH]c2ccccc12)NC(C)=O)C(=O)N[C@@H](CCSC)C(=O)N[C@@H](C)C(=O)N[C@H](C(=O)N[C@@H](Cc1c[nH]cn1)C(=O)NCC(=O)N[C@@H](CC(N)=O)C(=O)N[C@@H](CCC(=O)O)C(=O)N[C@@H](CC(C)C)C(=O)N[C@@H](C)C(=O)N[C@@H](CCC(=O)O)C(=O)N[C@@H](CC(C)C)C(=O)N[C@@H](C)C(=O)N[C@@H](CC(=O)O)C(=O)N[C@@H](CCCCN)C(=O)O)C(C)C [peptide 15] (Ac-WMDDEFAAIMAVHGNELAELADK-OH; C-terminus assumed) | 0.124 nM | 0.106 nM | 0.112 nM | 185 ± 52 ×10^-6 s-1 | 1.602 ± 0.332 ×10^6 M-1 s-1 | 0.115 ± 0.04 nM | 1.0 ± 0.3 h | 27.7 ± 0.9 °C | 70.6 ± 0.1 °C | 70.6 °C | 70.7 °C | 70.4 °C | –
